In ChEMBL document CHEMBL5724914, “Linking interpersonal differences in gut microbiota composition and drug biotransformation activity” (2024):

Legend:
Settings in all cases: 2 µM
[1] = The drug is tested on Z-029 corresponding to rat gut metagenome with ENA study accession number: PRJEB37062 and ENA sample accession number: ERS12561828 for biotransformation under anaerobic condition. The drug concentrations were measured over 9 timepoints collected between 0 and 24 hours of incubation by liquid-chromatography-coupled mass spectrometry (LC–MS)
[2] = The drug is tested on Z-009 corresponding to pig gut metagenome with ENA study accession number: PRJEB37062 and ENA sample accession number: ERS12561809 for biotransformation under anaerobic condition. The drug concentrations were measured over 9 timepoints collected between 0 and 24 hours of incubation by liquid-chromatography-coupled mass spectrometry (LC–MS)
[3] = The drug is tested on Z-013 corresponding to rabbit gut metagenome with ENA study accession number: PRJEB37062 and ENA sample accession number: ERS12561813 for biotransformation under anaerobic condition. The drug concentrations were measured over 9 timepoints collected between 0 and 24 hours of incubation by liquid-chromatography-coupled mass spectrometry (LC–MS)
[4] = The drug is tested on Z-021 corresponding to metagenome with ENA study accession number: PRJEB37062 and ENA sample accession number: ERS12561820 for biotransformation under anaerobic condition. The drug concentrations were measured over 9 timepoints collected between 0 and 24 hours of incubation by liquid-chromatography-coupled mass spectrometry (LC–MS)
[5] = The drug is tested on Z-010 corresponding to metagenome with ENA study accession number: PRJEB37062 and ENA sample accession number: ERS12561810 for biotransformation under anaerobic condition. The drug concentrations were measured over 9 timepoints collected between 0 and 24 hours of incubation by liquid-chromatography-coupled mass spectrometry (LC–MS)
[6] = The drug is tested on Z-025 corresponding to rabbit gut metagenome with ENA study accession number: PRJEB37062 and ENA sample accession number: ERS12561824 for biotransformation under anaerobic condition. The drug concentrations were measured over 9 timepoints collected between 0 and 24 hours of incubation by liquid-chromatography-coupled mass spectrometry (LC–MS)
[7] = The drug is tested on Z-027 corresponding to metagenome with ENA study accession number: PRJEB37062 and ENA sample accession number: ERS12561826 for biotransformation under anaerobic condition. The drug concentrations were measured over 9 timepoints collected between 0 and 24 hours of incubation by liquid-chromatography-coupled mass spectrometry (LC–MS)
[8] = The drug is tested on Z-012 corresponding to metagenome with ENA study accession number: PRJEB37062 and ENA sample accession number: ERS12561812 for biotransformation under anaerobic condition. The drug concentrations were measured over 9 timepoints collected between 0 and 24 hours of incubation by liquid-chromatography-coupled mass spectrometry (LC–MS)
[9] = The drug is tested on Z-001 corresponding to mouse gut metagenome with ENA study accession number: PRJEB37062 and ENA sample accession number: ERS12561801 for biotransformation under anaerobic condition. The drug concentrations were measured over 9 timepoints collected between 0 and 24 hours of incubation by liquid-chromatography-coupled mass spectrometry (LC–MS)
[10] = The drug is tested on Z-007 corresponding to rat gut metagenome with ENA study accession number: PRJEB37062 and ENA sample accession number: ERS12561807 for biotransformation under anaerobic condition. The drug concentrations were measured over 9 timepoints collected between 0 and 24 hours of incubation by liquid-chromatography-coupled mass spectrometry (LC–MS)
[11] = The drug is tested on Z-011 corresponding to mouse gut metagenome with ENA study accession number: PRJEB37062 and ENA sample accession number: ERS12561811 for biotransformation under anaerobic condition. The drug concentrations were measured over 9 timepoints collected between 0 and 24 hours of incubation by liquid-chromatography-coupled mass spectrometry (LC–MS)
[12] = The drug is tested on Z-004 corresponding to metagenome with ENA study accession number: PRJEB37062 and ENA sample accession number: ERS12561804 for biotransformation under anaerobic condition. The drug concentrations were measured over 9 timepoints collected between 0 and 24 hours of incubation by liquid-chromatography-coupled mass spectrometry (LC–MS)
[13] = The drug is tested on Z-026 corresponding to metagenome with ENA study accession number: PRJEB37062 and ENA sample accession number: ERS12561825 for biotransformation under anaerobic condition. The drug concentrations were measured over 9 timepoints collected between 0 and 24 hours of incubation by liquid-chromatography-coupled mass spectrometry (LC–MS)
[14] = The drug is tested on Z-028 corresponding to mouse gut metagenome with ENA study accession number: PRJEB37062 and ENA sample accession number: ERS12561827 for biotransformation under anaerobic condition. The drug concentrations were measured over 9 timepoints collected between 0 and 24 hours of incubation by liquid-chromatography-coupled mass spectrometry (LC–MS)
[15] = The drug is tested on Z-008 corresponding to metagenome with ENA study accession number: PRJEB37062 and ENA sample accession number: ERS12561808 for biotransformation under anaerobic condition. The drug concentrations were measured over 9 timepoints collected between 0 and 24 hours of incubation by liquid-chromatography-coupled mass spectrometry (LC–MS)
[16] = The drug is tested on Z-005 corresponding to metagenome with ENA study accession number: PRJEB37062 and ENA sample accession number: ERS12561805 for biotransformation under anaerobic condition. The drug concentrations were measured over 9 timepoints collected between 0 and 24 hours of incubation by liquid-chromatography-coupled mass spectrometry (LC–MS)
[17] = The drug is tested on Z-003 corresponding to pig gut metagenome with ENA study accession number: PRJEB37062 and ENA sample accession number: ERS12561803 for biotransformation under anaerobic condition. The drug concentrations were measured over 9 timepoints collected between 0 and 24 hours of incubation by liquid-chromatography-coupled mass spectrometry (LC–MS)
[18] = The drug is tested on Z-002 corresponding to rabbit gut metagenome with ENA study accession number: PRJEB37062 and ENA sample accession number: ERS12561802 for biotransformation under anaerobic condition. The drug concentrations were measured over 9 timepoints collected between 0 and 24 hours of incubation by liquid-chromatography-coupled mass spectrometry (LC–MS)
[19] = The drug is tested on Z-023 corresponding to metagenome with ENA study accession number: PRJEB37062 and ENA sample accession number: ERS12561822 for biotransformation under anaerobic condition. The drug concentrations were measured over 9 timepoints collected between 0 and 24 hours of incubation by liquid-chromatography-coupled mass spectrometry (LC–MS)
[20] = The drug is tested on Z-006 corresponding to mouse gut metagenome with ENA study accession number: PRJEB37062 and ENA sample accession number: ERS12561806 for biotransformation under anaerobic condition. The drug concentrations were measured over 9 timepoints collected between 0 and 24 hours of incubation by liquid-chromatography-coupled mass spectrometry (LC–MS)
[21] = The drug is tested on Z-024 corresponding to pig gut metagenome with ENA study accession number: PRJEB37062 and ENA sample accession number: ERS12561823 for biotransformation under anaerobic condition. The drug concentrations were measured over 9 timepoints collected between 0 and 24 hours of incubation by liquid-chromatography-coupled mass spectrometry (LC–MS)
[22] = The drug is tested on Z-022 corresponding to mouse gut metagenome with ENA study accession number: PRJEB37062 and ENA sample accession number: ERS12561821 for biotransformation under anaerobic condition. The drug concentrations were measured over 9 timepoints collected between 0 and 24 hours of incubation by liquid-chromatography-coupled mass spectrometry (LC–MS)
[23] = The drug is tested on Z-030 corresponding to mouse gut metagenome with ENA study accession number: PRJEB37062 and ENA sample accession number: ERS12561829 for biotransformation under anaerobic condition. The drug concentrations were measured over 9 timepoints collected between 0 and 24 hours of incubation by liquid-chromatography-coupled mass spectrometry (LC–MS)
[24] = The drug is tested on Z-016 corresponding to mouse gut metagenome with ENA study accession number: PRJEB37062 and ENA sample accession number: ERS12561815 for biotransformation under anaerobic condition. The drug concentrations were measured over 9 timepoints collected between 0 and 24 hours of incubation by liquid-chromatography-coupled mass spectrometry (LC–MS)
Note: call rule not given here.

## CN1CCCCC1CCN1c2ccccc2Sc2ccc([S+](C)[O-])cc21.O=S(=O)(O)c1ccccc1 (centres undefined) [MESORIDAZINE BESYLATE]
[1]
  Bacterial Biotransformation: Compound NOT metabolized
[2]
  Bacterial Biotransformation: Compound metabolized
[3]
  Bacterial Biotransformation: Compound NOT metabolized
[4]
  Bacterial Biotransformation: Compound NOT metabolized
[5]
  Bacterial Biotransformation: Compound metabolized
[6]
  Bacterial Biotransformation: Compound metabolized
[7]
  Bacterial Biotransformation: Compound NOT metabolized
[8]
  Bacterial Biotransformation: Compound metabolized
[9]
  Bacterial Biotransformation: Compound NOT metabolized
[10]
  Bacterial Biotransformation: Compound NOT metabolized
[11]
  Bacterial Biotransformation: Compound NOT metabolized
[12]
  Bacterial Biotransformation: Compound metabolized
[13]
  Bacterial Biotransformation: Compound NOT metabolized
[14]
  Bacterial Biotransformation: Compound NOT metabolized
[15]
  Bacterial Biotransformation: Compound NOT metabolized
[16]
  Bacterial Biotransformation: Compound metabolized
[17]
  Bacterial Biotransformation: Compound metabolized
[18]
  Bacterial Biotransformation: Compound metabolized
[19]
  Bacterial Biotransformation: Compound NOT metabolized
[20]
  Bacterial Biotransformation: Compound NOT metabolized
[21]
  Bacterial Biotransformation: Compound NOT metabolized
[22]
  Bacterial Biotransformation: Compound NOT metabolized
[23]
  Bacterial Biotransformation: Compound NOT metabolized
[24]
  Bacterial Biotransformation: Compound metabolized
